Experimental data: the NIST ThermoML archive (doi:10.1021/je200721d)

Assay: xn = mol fraction of the nth substance listed
Conditions: Liquid, Vibrating tube method

CCCCCCCCCC [decane] + CCCCCC
Conditions | mass density [kg/m3]
323.14 K, 13000 kPa, x2 = 0.2185 | 707.88
323.14 K, 13000 kPa, x2 = 0.4968 | 691.97
323.14 K, 14000 kPa, x2 = 0.0456 | 717.02
323.14 K, 14000 kPa, x2 = 0.2185 | 708.71
323.14 K, 14000 kPa, x2 = 0.4968 | 692.85
323.14 K, 15000 kPa, x2 = 0.0456 | 717.82
323.14 K, 15000 kPa, x2 = 0.2185 | 709.54
323.14 K, 15000 kPa, x2 = 0.4968 | 693.71
323.14 K, 16000 kPa, x2 = 0.0456 | 718.6
323.14 K, 16000 kPa, x2 = 0.2185 | 710.33
323.14 K, 16000 kPa, x2 = 0.4968 | 694.57
323.14 K, 17000 kPa, x2 = 0.0456 | 719.38
323.14 K, 17000 kPa, x2 = 0.2185 | 711.14
323.14 K, 17000 kPa, x2 = 0.4968 | 695.4
323.14 K, 18000 kPa, x2 = 0.0456 | 720.14
323.14 K, 18000 kPa, x2 = 0.2185 | 711.93
323.14 K, 18000 kPa, x2 = 0.4968 | 696.25
323.14 K, 19000 kPa, x2 = 0.0456 | 720.9
323.14 K, 19000 kPa, x2 = 0.2185 | 712.7
323.14 K, 19000 kPa, x2 = 0.4968 | 697.05
323.14 K, 20000 kPa, x2 = 0.0456 | 721.64
323.14 K, 20000 kPa, x2 = 0.2185 | 713.47
323.14 K, 20000 kPa, x2 = 0.4968 | 697.87
323.14 K, 21000 kPa, x2 = 0.0456 | 722.37
323.14 K, 21000 kPa, x2 = 0.2185 | 714.23
323.14 K, 21000 kPa, x2 = 0.4968 | 698.66
323.14 K, 22000 kPa, x2 = 0.0456 | 723.1
323.14 K, 22000 kPa, x2 = 0.2185 | 714.97
323.14 K, 22000 kPa, x2 = 0.4968 | 699.42
323.14 K, 23000 kPa, x2 = 0.0456 | 723.81
323.14 K, 23000 kPa, x2 = 0.2185 | 715.7
323.14 K, 23000 kPa, x2 = 0.4968 | 700.17
323.14 K, 24000 kPa, x2 = 0.0456 | 724.52
323.14 K, 24000 kPa, x2 = 0.2185 | 716.43
323.14 K, 24000 kPa, x2 = 0.4968 | 700.91
323.14 K, 25000 kPa, x2 = 0.0456 | 725.21
323.14 K, 25000 kPa, x2 = 0.2185 | 717.13
323.14 K, 25000 kPa, x2 = 0.4968 | 701.65
323.16 K, 1000 kPa, x2 = 0.7524 | 659.51
323.16 K, 2000 kPa, x2 = 0.7524 | 660.73
323.16 K, 3000 kPa, x2 = 0.7524 | 661.92
323.16 K, 4000 kPa, x2 = 0.7524 | 663.04
323.16 K, 5000 kPa, x2 = 0.7524 | 664.17
323.16 K, 6000 kPa, x2 = 0.7524 | 665.29
323.16 K, 7000 kPa, x2 = 0.7524 | 666.38
323.16 K, 8000 kPa, x2 = 0.7524 | 667.43
323.16 K, 9000 kPa, x2 = 0.7524 | 668.5
323.16 K, 10000 kPa, x2 = 0.7524 | 669.53
323.16 K, 10990 kPa, x2 = 0.7524 | 670.57
323.16 K, 12000 kPa, x2 = 0.7524 | 671.56
323.16 K, 13000 kPa, x2 = 0.7524 | 672.52
323.16 K, 14000 kPa, x2 = 0.7524 | 673.49
323.16 K, 15000 kPa, x2 = 0.7524 | 674.44
323.16 K, 16000 kPa, x2 = 0.7524 | 675.39
323.16 K, 17000 kPa, x2 = 0.7524 | 676.32
323.16 K, 18000 kPa, x2 = 0.7524 | 677.22
323.16 K, 19000 kPa, x2 = 0.7524 | 678.11
323.16 K, 20000 kPa, x2 = 0.7524 | 678.99
323.16 K, 21000 kPa, x2 = 0.7524 | 679.85
323.16 K, 22000 kPa, x2 = 0.7524 | 680.67
323.16 K, 23000 kPa, x2 = 0.7524 | 681.51
323.16 K, 24000 kPa, x2 = 0.7524 | 682.33
323.16 K, 25000 kPa, x2 = 0.7524 | 683.11
332.58 K, 1000 kPa, x2 = 0.4968 | 671.98
332.58 K, 2000 kPa, x2 = 0.4968 | 673.11
332.58 K, 3000 kPa, x2 = 0.4968 | 674.24
332.58 K, 4000 kPa, x2 = 0.4968 | 675.37
332.58 K, 5000 kPa, x2 = 0.4968 | 676.46
332.58 K, 6000 kPa, x2 = 0.4968 | 677.53
332.58 K, 7000 kPa, x2 = 0.4968 | 678.61
332.58 K, 8000 kPa, x2 = 0.4968 | 679.66
332.58 K, 9000 kPa, x2 = 0.4968 | 680.68
332.58 K, 10000 kPa, x2 = 0.4968 | 681.7
332.58 K, 10990 kPa, x2 = 0.4968 | 682.69
332.58 K, 12000 kPa, x2 = 0.4968 | 683.66
332.58 K, 13000 kPa, x2 = 0.4968 | 684.64
332.58 K, 14000 kPa, x2 = 0.4968 | 685.59
332.58 K, 15000 kPa, x2 = 0.4968 | 686.54
332.58 K, 16000 kPa, x2 = 0.4968 | 687.44
332.58 K, 17000 kPa, x2 = 0.4968 | 688.35
332.58 K, 18000 kPa, x2 = 0.4968 | 689.24
332.58 K, 19000 kPa, x2 = 0.4968 | 690.12
332.58 K, 20000 kPa, x2 = 0.4968 | 690.99
332.58 K, 21000 kPa, x2 = 0.4968 | 691.85
332.58 K, 22000 kPa, x2 = 0.4968 | 692.69
332.58 K, 23000 kPa, x2 = 0.4968 | 693.52
332.58 K, 24000 kPa, x2 = 0.4968 | 694.34
332.58 K, 25000 kPa, x2 = 0.4968 | 695.13
332.93 K, 1000 kPa, x2 = 0.8991 | 636.12
332.93 K, 2000 kPa, x2 = 0.8991 | 637.35
332.93 K, 3000 kPa, x2 = 0.8991 | 638.61
332.93 K, 4000 kPa, x2 = 0.8991 | 639.84
332.93 K, 5000 kPa, x2 = 0.8991 | 641.09
332.93 K, 6000 kPa, x2 = 0.8991 | 642.3
